Measurements as given in patent US7491733B2, “Bicyclic guanidine derivatives and therapeutic uses thereof” (Merck Patent GmbH, priority 2001, dated 2009).
Counter-ions that a name gives are not always drawn. Like-named read-outs stand apart in the source and are kept apart here.

Key:
[1] = test system: Nostz Rats; assay: Oral antidiabetic activity in Nostz rats (non-insulin-dependent diabetes induced by neonatal steptozotocin); change in glycaemia; assay type: in vivo; settings: Rattus norvegicus, blood sample two hours after the final administration, diabetic rats; for change in vivo at 20 mg/kg: 20 mg/kg/day; for change in vivo at 200 mg/kg: 200 mg/kg/day
Method: Study of the Antidiabetic Activity in Nostz Rats
The oral antidiabetic activity of the compounds of the formula (I) was determined on an experimental model of non-insulin-dependent diabetes, induced in the rats with steptozotocin.
The model of non-insulin-dependent diabetes is obtained in the rats by means of a neonatal injection (on the day of birth) of steptozotocin.
The diabetic rats used are eight weeks old. The animals are housed, from the day of birth to the day of the experiment, in an animal house at a regulated temperature of 21 to 22° C. and subjected to a fixed cycle of light (from 7 a.m. to 7 p.m.) and darkness (from 7 p.m. to 7 a.m.). Their food consisted of a maintenance diet, and water and food were given “ad libitum”, with the exception of fasting two hours before the tests, during which period the food is removed (post-absorptive state).
The rats are treated orally for one (D1) or four (D4) days with the test product. Two hours after the final administration of the product and 30 minutes after the animals have been anaesthetised with pentobarbital sodium (Nembutal®), a 300 μl blood sample is taken from the end of the tail.
By way of example, results obtained are collated in Table 2.

[2] = 24 h, one day of treatment (D1), read-out: percentage change in the glycaemia on D1 relative to D0
[3] = 96 h, four days of treatment (D4), read-out: percentage change in the glycaemia on D4 relative to D0

Structure (SMILES)	melting point [°C]	change in vivo at 20 mg/kg [1, 2] [%]	change in vivo at 200 mg/kg [1, 2] [%]	change in vivo at 20 mg/kg [1, 3] [%]	change in vivo at 200 mg/kg [1, 3] [%]
COc1cc2c(cc1OC)CC(CNC(=N)N)C2 (as salt: sulfate) [Compound 11]	191 to 193	–	–	–	–
N=C(N)NCc1nc2ccccc2s1 [Compound 5]	–	-18	-30	-3	-26
CN(Cc1nc2ccccc2[nH]1)C(=N)N [Compound 6]	–	3	-6	0	-16
CN(Cc1nc2ccccc2s1)C(=N)N [Compound 1, 2-(aminoiminomethyl(methylamino)methyl)-benzothiazole hydrochloride]	–	5	-9	-4	-23
N=C(N)NCc1nc2ccccc2[nH]1 [Compound 2, 2-(aminoiminomethylamino)methylbenzimidazole hydrochloride]	–	-17	-10	-13	-25
N=C(N)NCc1cc2ccccc2o1 [Compound 15]	–	-23	-29	-28	-31
N=C(N)NCC1Cc2ccccc2C1 (as salt: sulfate) [Compound 3, 2-(aminoiminomethylamino)methylindane sulfate]	231 to 233	–	–	–	–
N=C(N)NCc1cc2ccccc2[nH]1 [Compound 7]	–	-5	-19	-9	-28
N=C(N)NCC1Cc2ccccc2N1 (centres unmarked) [Compound 8]	–	-7	-10	-12	-9
CN(CC1=Cc2ccccc2C1)C(=N)N (as salt: hydrochloride) [Compound 16]	209 to 211	–	–	–	–
COc1ccc2[nH]c(CNC(=N)N)cc2c1 (as salt: sulfate) [Compound 13]	213 to 215	–	–	–	–
CN(Cc1nc2ccccc2s1)C(=N)N (as salt: hydrochloride) [Compound 1, 2-(aminoiminomethyl(methylamino)methyl)-benzothiazole hydrochloride]	203 to 205	–	–	–	–
Cn1c(CNC(=N)N)cc2cc(F)ccc21 (as salt: hydrochloride) [Compound 14]	181 to 183	–	–	–	–
COc1cc2c(cc1OC)CC(CNC(=N)N)C2 [Compound 11]	–	-1	-8	-8	-14
N=C(N)NCC1Cc2ccccc2O1 (centres unmarked) [Compound 9]	139 to 141	–	–	–	–
N=C(N)NCC1Cc2cc(F)c(F)cc2C1 (as salt: sulfate) [Compound 17]	> 250	–	–	–	–
COc1ccc2c(c1)cc(CNC(=N)N)n2C (as salt: sulfate) [Compound 12]	233 to 235	–	–	–	–
N=C(N)NCC1Cc2ccccc2C1 [Compound 3, 2-(aminoiminomethylamino)methylindane sulfate]	–	2	-14	-10	-29
N=C(N)NCC1Cc2ccccc2N1 (centres unmarked) (as salt: hemisulfate) [Compound 8]	189 to 191	–	–	–	–
N=C(N)NCc1cc2ccccc2o1 (as salt: sulfate) [Compound 15]	244 to 247	–	–	–	–
CN(Cc1nc2ccccc2[nH]1)C(=N)N (as salt: hydrochloride) [Compound 6]	253 to 255	–	–	–	–
N=C(N)NCc1nc2ccccc2[nH]1 (as salt: hydrochloride) [Compound 2, 2-(aminoiminomethylamino)methylbenzimidazole hydrochloride]	171 to 173	–	–	–	–
N=C(N)NCc1nc2ccccc2s1 (as salt: hydrochloride) [Compound 5]	196 to 198	–	–	–	–
COc1ccc2c(c1)cc(CNC(=N)N)n2C [Compound 12]	–	–	-22	–	-26
COc1ccc2[nH]c(CNC(=N)N)cc2c1 [Compound 13]	–	–	-16	–	-26
N=C(N)NCC1Cc2ccccc2S1 (centres unmarked) [Compound 10]	187 to 189	-3	-21	-5	-25
